The subject of the series is L1210. The series is described as follows: In vitro cytotoxicity, Microculture Tetrazolium Assay, L1210. The note with it: L1210 murine leukaemia, incubated for 2 days; read-out: IC50 (concentration of cytotoxic agent which inhibits proliferation of the treated cells by 50%). It counts as cell-based. The protocol:
Three cell lines were used:
The cells are cultured in RPMI 1640 complete culture medium containing 10% foetal calf serum, 2 mM glutamine, 50 units/ml of penicillin, 50 μg/ml of streptomycin and 10 mM Hepes, pH=7.4. The cells are distributed on microplates and are exposed to the cytotoxic compounds. The cells are then incubated for 2 days (L1210) or 4 days (A549, HT29). The number of viable cells is then quantified by a colorimetric assay, the Microculture Tetrazolium Assay (Cancer Res. 1987, 47, 939-942).

As to `COc1cc(C2C3=C(COC3=O)Nc3c2ccc2ccc(O)cc32)cc(OC)c1OC` (stereo not shown) [Example 4], the IC50 was 7 nM.

The values are drawn from patent US20040180917A1, “Novel tricyclic dihydro-quinoline derivatives, method for preparing same and pharmaceutical compositions containing the same” (priority 2001, published 2004).
